# Results published in patent US20140090094A1, “MODULATORS OF SLC22A7” (BAYER INTELLECTUAL PROPERTY GmbH, priority 2011, published 2014).
# Columns and labels:
# OAT2h = target: T1, OAT2h (Homo sapiens, UniProt Q9Y694); assay: intracellular glutamate content of 293 cells expressing OAT2h versus uninduced control cells; assay type: cell-based; details: n=2
# T1 construct: expressed in transfected cells; host or cells: 293 cells (HEK-293), pEBTetD/OAT2h, doxycycline-inducible
# T1 sequence (Q9Y694 1-546 isoform Q9Y694-2): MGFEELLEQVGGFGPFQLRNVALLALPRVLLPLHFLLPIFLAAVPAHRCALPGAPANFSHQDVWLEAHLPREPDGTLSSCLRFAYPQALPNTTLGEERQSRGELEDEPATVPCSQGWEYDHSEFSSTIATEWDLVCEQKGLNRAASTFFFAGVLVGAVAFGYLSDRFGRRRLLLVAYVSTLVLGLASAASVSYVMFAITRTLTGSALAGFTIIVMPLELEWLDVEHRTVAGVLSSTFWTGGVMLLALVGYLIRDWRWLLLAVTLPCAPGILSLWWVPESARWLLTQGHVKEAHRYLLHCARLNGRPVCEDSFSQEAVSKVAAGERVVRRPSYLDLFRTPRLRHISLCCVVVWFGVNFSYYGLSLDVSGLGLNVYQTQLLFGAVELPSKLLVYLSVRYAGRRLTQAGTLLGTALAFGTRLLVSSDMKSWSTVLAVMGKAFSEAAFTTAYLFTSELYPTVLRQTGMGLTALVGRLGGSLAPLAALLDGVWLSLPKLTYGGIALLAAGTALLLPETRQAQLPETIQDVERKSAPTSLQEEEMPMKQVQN
# OAT2r = target: T2, OAT2r (Rattus norvegicus, UniProt Q5RLM2); assay: intracellular glutamate content of 293 cells expressing OAT2r versus uninduced control cells; assay type: cell-based; details: n=4
# T2 construct: expressed in transfected cells
# T2 sequence (Q5RLM2 1-535): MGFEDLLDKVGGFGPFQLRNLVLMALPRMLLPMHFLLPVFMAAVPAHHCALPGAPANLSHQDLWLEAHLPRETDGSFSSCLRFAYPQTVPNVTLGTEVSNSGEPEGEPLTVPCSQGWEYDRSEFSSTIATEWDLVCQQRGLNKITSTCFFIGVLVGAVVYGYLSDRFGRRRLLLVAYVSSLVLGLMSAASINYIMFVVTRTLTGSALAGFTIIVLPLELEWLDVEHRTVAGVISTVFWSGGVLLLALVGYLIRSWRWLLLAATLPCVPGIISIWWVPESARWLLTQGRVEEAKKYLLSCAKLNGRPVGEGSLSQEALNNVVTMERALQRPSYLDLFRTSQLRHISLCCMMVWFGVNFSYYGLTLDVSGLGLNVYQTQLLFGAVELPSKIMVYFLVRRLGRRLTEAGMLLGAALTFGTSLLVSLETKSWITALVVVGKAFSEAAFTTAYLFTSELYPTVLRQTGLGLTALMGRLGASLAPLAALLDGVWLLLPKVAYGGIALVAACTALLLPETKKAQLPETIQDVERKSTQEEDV
structure (smiles),measurement,setting,value
N[C@@H](CCC(=O)O)C(=O)O [glutamate],intracellular glutamate content versus uninduced control cells (factor f),OAT2h,0.60±0.09
same,intracellular glutamate content versus uninduced control cells (factor f),OAT2r,0.55±0.11
